What all share (experiment): NCI tumour cell line growth inhibition, 48 h
For assay [1], the system named is SK-MEL-2 melanoma.
Assay [2] concerns NCI-H226 lung.
Assay [3] has as its system DU-145 prostate.
In assay [4] the test system is A498 renal.
Assay [5] deals with HOP-92 NSCLC.
The subject of assay [6] is TK-10 renal.
The subject of assay [7] is 786-0 renal.
For assay [8], the system named is OVCAR-8 ovarian.
The test system of assay [9] is CCRF-CEM leukemia.
Assay [10] relates to HOP-62 NSCLC.

Where “and” joins values, the source holds several entries; their conditions need not be identical. Identical values can stand only once.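 Protocol summary: plate cells (96-well), add compound at 5 concentrations, incubate 48 h, interpolate endpoints linearly. Abbreviation: GI50, concentration required for 50% inhibition of growth. At the TGI there is no net growth.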 Some results are limits rather than exact numbers.

On to `O=C(Nc1ccc(Cl)cc1)NS(=O)(=O)c1ccc2c(c1)CCC2`, for which the GI50 is 21.6 µg/mL in [1]; 24.1 µg/mL in assay [2]; 19.1 µg/mL in assay [4]; 8.6 µg/mL in assay [5]; 21 µg/mL in assay [6]; 21.1 µg/mL in assay [7]. For the same compound, the values for the GI50 in [8] and in assay [9] were 18.8 µg/mL and 10.5 µg/mL, respectively. For the same compound, the TGI in assay [1] was > 100 µM and 48.6 µg/mL; in [2] it was > 77.8 µM and 52.5 µg/mL; in assay [3], 92 µM; in [4], > 100 µM and 38 µg/mL; in assay [5], 31.5 µg/mL; in [6], > 95.4 µM and 44.5 µg/mL. Further, the TGI in [7] was > 100 µM and 40.5 µg/mL; in [8], > 100 µM and 44.2 µg/mL; in assay [9], > 100 µM and 57.4 µg/mL; in [10], > 100 µM.

As for `Cc1ncc(C(=O)Nc2ccc(CN3CCN(C)CC3)c(C(F)(F)F)c2)cc1C#Cc1c(N)ncc2ccc(C#N)cc12`, the GI50 was 1.74 µM in assay [1]; 0.451 µM in assay [2]; 0.976 µM in assay [3]; 1.21 µM in [4]; 0.075 µM in [5]; 3.08 µM in assay [6]. The GI50 was 1.19 µM in assay [7], 4.77 µM in assay [8], 1.41 µM in assay [9] and 0.988 µM in [10]. Besides, the TGI in [1] came to 17.5 µM; in assay [2] it was 2.3 µM; in assay [3], 7.43 µM; in [4], 4.55 µM; in assay [5], 1.25 µM; in assay [6] it was 12.2 µM. The TGI is 3.06 µM in assay [7], 21.2 µM in [8], 16.5 µM in [9] and 11.2 µM in assay [10].

As to `Cc1cc(Cl)n2c(nc3ccccc32)c1C#N`, the GI50 is 0.396 µM in [1]; 1.54 µM in [2]; 0.339 µM in assay [3]; 4.18 µM in assay [4]; 0.494 µM in assay [5]; 0.898 µM in assay [6]. Moreover, the GI50 is 0.768 µM in [7], 0.597 µM in assay [8], 0.0485 µM in assay [9] and 0.572 µM in assay [10]. Also, the TGI in assay [1] was 2.25 µM; in assay [2] it was 10 µM; in [3], 1.2 µM; in assay [4] it was 17.7 µM; in assay [5], 1.62 µM; in assay [6], 10.9 µM. The TGI in assay [7] was found to be 6.48 µM; in assay [8], 11.9 µM; in assay [10] it was 3.45 µM.

Take `COC1CC(OC2OC(CO)C(O)C(O)C2O)/C(=C\C#N)C(O)C1OC` (stereo unspecified): the TGI in [1], in [2], in [3], in assay [4], in [5] and in [6] was > 100 µM in each case. In addition, the TGI in assay [7], in [8], in assay [9] and in assay [10] was > 100 µM throughout.

Take `CC(C)(O)Cn1c(=O)c(Oc2ccc(F)cc2F)cc2cnc(NC3CCOCC3)nc21`: the GI50 in [1] is > 25 µM; in assay [2], > 25 µM; in assay [3], > 25 µM; in assay [4] it was > 14.7 µM; in assay [5] it was 7.79 µM; in assay [6], > 25 µM. In addition, the GI50 in [7], in assay [8], in assay [9] and in [10] was > 25 µM in each case. Besides, the TGI in [1], in assay [2], in [3], in assay [4], in [5] and in [6] was > 25 µM throughout. Besides, the TGI in assay [7], in assay [8], in [9] and in assay [10] was > 25 µM each time.

For `COc1ccc(C2SC(N)=Nc3c2c(C)nn3C(=O)c2ccncc2)cc1` (stereo unspecified), the TGI in [1], in assay [2], in assay [3], in [4], in [5] and in assay [6] was > 100 µM in each case. For the same compound, the TGI in [7], in assay [8], in [9] and in assay [10] was > 100 µM throughout.

`O=P(O)(O)OC1C(OP(=O)(O)O)C(OP(=O)(O)O)C(OP(=O)(O)O)C(OP(=O)(O)O)C1OP(=O)(O)O` (stereo unspecified): the GI50 is > 2000 µM in assay [1]; > 1070 µM in [2]; > 2000 µM in assay [3]; > 500 µM and 1190 µM in assay [4]; > 100 µM in [5]; > 1360 µM in assay [6]. For the same compound, the GI50 in assay [7] was > 2000 µM; in assay [8], > 2000 µM; in assay [9] it was > 100 µM; in assay [10], > 2000 µM. Besides, the TGI in assay [1] was > 2000 µM; in [2] it was > 1850 µM; in assay [3], > 2000 µM; in assay [4], > 2000 µM; in [5], > 1880 µM; in [6], > 2000 µM. Further, the TGI in [7], in [8], in assay [9] and in assay [10] was > 2000 µM in each case.

For `C=C1C(=O)OC(CCCCCCCC)C1C(=O)O` (stereo unspecified), the GI50 in assay [1] is 16.1 µM; in assay [2] it was 19.8 µM; in assay [3], 15.2 µM; in [4], 17.4 µM; in assay [5] it was 12.1 µM; in [6], 18.9 µM. The GI50 in [7] was 18.2 µM; in assay [8], 19.4 µM; in [9] it was 5.49 µM; in assay [10], 20.5 µM. For the same compound, the TGI was found to be 31.7 µM in [1]; 48.1 µM in assay [2]; 30.1 µM in [3]; 33.3 µM in assay [4]; 25.4 µM in [5]; 33.6 µM in assay [6]. Moreover, the TGI in assay [7] was determined as 36.7 µM; in [8], 45.9 µM; in [9], 38.7 µM; in assay [10] it was 39.1 µM.

On to `O=C(Nc1ccc(Cl)c(Cl)c1)Nc1ccc(Cl)c([N+](=O)[O-])c1`, for which the GI50 was 1.14 µM in assay [1]; 1.3 µM in assay [2]; 1.2 µM in [3]; 1.37 µM in assay [4]; 0.66 µM in assay [5]; 1.42 µM in assay [6]. The GI50 in assay [7] was 1.49 µM; in assay [8], 1.44 µM; in assay [9], 1.12 µM; in assay [10], 2.06 µM. Besides, the TGI in assay [1] was 5.5 µM; in assay [2], 5.54 µM; in assay [3], > 25 µM; in assay [4], 4.47 µM; in assay [5] it was 2.07 µM; in assay [6], 6.9 µM. For the same compound, the TGI in assay [7] was 5.21 µM; in assay [8], 8.91 µM; in assay [9], > 25 µM; in assay [10], 6.04 µM.

Take `CC/C=C/[C@@H]1C=C[C@@H]2CCC[C@H]2[C@@H]1CC[C@H](O)[C@H](C)N`: the GI50 in assay [1] is 2.11 µM; in assay [2], 11.9 µM; in [3] it was 1.93 µM; in assay [4] it was 1.62 µM; in [5], 1.41 µM; in [6], 1.36 µM. Also, the GI50 was 1.72 µM in [7], 2.3 µM in assay [8], 4.65 µM in assay [9] and 1.47 µM in assay [10]. The TGI in assay [1] came out at 4.73 µM; in assay [2], 27.6 µM; in assay [3], 3.98 µM; in [4], 5.58 µM; in assay [5], 3.89 µM; in assay [6], 2.68 µM. Besides, the TGI in assay [7] was determined as 3.09 µM; in assay [8], 5.54 µM; in assay [9] it was 84.3 µM; in assay [10], 2.8 µM.

Consider `O=C1CCCC1C(=O)Nc1ccc2ccccc2c1` (stereo unspecified), for which the TGI in assay [1], in assay [2], in assay [3], in [4], in assay [5] and in assay [6] was > 100 µM each time. For the same compound, the TGI in assay [7], in assay [8], in [9] and in [10] was > 100 µM in each case.

Regarding `CN(NC(=O)/C(=C/c1ccc(O)cc1)NC(=O)c1ccccc1)c1ccnc2cc(Cl)ccc12`, the TGI was 44.4 µM in assay [1]; 32.7 µM in assay [2]; 56.9 µM in assay [3]; 32.4 µM in [4]; 32.2 µM in assay [5]; 30 µM in [6]. The TGI in assay [7] turned out to be 35.8 µM; in assay [8], 47 µM; in [9], 61.5 µM; in assay [10] it was 30.1 µM.

Consider `N/C(=N\N=C\c1ccc2c(c1)OCO2)NO`, for which the TGI is 61.1 µM in [1]; 40.8 µM in assay [2]; 99 µM in assay [3]; 56.5 µM in assay [4]; 83.1 µM in assay [5]; > 100 µM in assay [6]. In addition, the TGI was determined as 37.7 µM in assay [7], 40 µM in assay [8], 51.1 µM in [9] and 66.7 µM in assay [10].

On to `O=C1CCC/C=C\C[C@H]2C=C(Cl)C(=O)/C2=C/C[C@H](CCCCC(F)(F)F)OC(=O)CCC/C=C\C[C@H]2C=C(Cl)C(=O)/C2=C/C[C@H](CCCCC(F)(F)F)O1`, for which the GI50 is 0.329 µM in assay [1]; 0.263 µM in [2]; 0.264 µM in assay [3]; 0.965 µM in assay [4]; 0.199 µM in assay [5]; 0.346 µM in [6]. Besides, the GI50 in [7] was 0.18 µM; in [8] it was 0.231 µM; in assay [9] it was 0.178 µM; in [10], 0.274 µM. Moreover, the TGI turned out to be 2.11 µM in assay [1]; 1.23 µM in assay [2]; 1.42 µM in assay [3]; 2.12 µM in assay [4]; 0.754 µM in assay [5]; 1.89 µM in [6]. The TGI in assay [7] is 0.475 µM; in assay [8], 1.09 µM; in assay [9], 0.884 µM; in assay [10], 1.46 µM.

`CC(=O)OCC1OC(n2cc(F)c(=O)[nH]c2=O)C(OC(C)=O)C1OC(C)=O` (stereo unspecified): the TGI was > 100 µM in [1]; > 100 µM in [2]; > 100 µM in assay [3]; > 100 µM in assay [4]; > 55.8 µM in assay [5]; > 100 µM in [6]. In addition, the TGI in assay [7] was > 94.5 µM; in assay [8], > 100 µM; in assay [9], > 100 µM; in assay [10] it was > 96.5 µM.

As for `Cc1c2c(n3c(nc4ccccc43)c1C#N)SCC2`, the TGI in [1], in assay [2], in [3], in assay [4], in [5] and in assay [6] was > 10 µM each time. Besides, the TGI in [7], in [8], in assay [9] and in assay [10] was > 10 µM in each case.

`Cc1cc(O)c2c(c1)C[C@@H](O)C1=C2C(=O)c2c(O)ccc(OC3CC(O)C(OC4CC(OC5CCC(OC6CC(O)C(OC7CC(OC8CCC(O)C(C)O8)C(O)C(C)O7)C(C)O6)C(C)O5)C(O)C(C)O4)C(C)O3)c2C1=O` (stereo partly specified): the GI50 is 0.89 µM in assay [1]; 1.48 µM in assay [2]; 2.03 µM and 1.37 µM in assay [3]; 2.72 µM and 2.47 µM in assay [4]; 0.3 µM in assay [5]; 2.13 µM and 2.93 µM in [6]. The GI50 in assay [7] was 0.49 µM and 0.28 µM; in assay [8] it was 0.364 µM; in assay [9], 0.0386 µM; in assay [10], 1.97 µM and 2.76 µM. In addition, the TGI is 0.461 µM and 3.07 µM in [2]; 0.492 µM and 3.45 µM and 2.69 µM in assay [3]; 0.316 µM and 0.684 µM in assay [5]; 0.255 µM and 0.266 µM in assay [9].

The values above are taken from PubChem BioAssay (NCI).
